In patent US4829086A, “Soft β-adrenergic blocking agents” (priority 1985, dated 1989):

Assays:
β-adrenergic [1] = conditions: major metabolite found in the urine; Borg et al; cited from earlier work
β-adrenergic [2] = assay: β-adrenergic activity of the acid metabolite (statement)
[3] = Hydrolytic rate in 0.01 N aqueous sodium hydroxide, pH 12.0; assay type: physicochemical; conditions: pH 12.0, ionic strength 0.10 M (NaCl), 27.3 ± 0.2° C.; for Observed pseudo first order hydrolytic rate constant k: 0.01 N NaOH, ± SEM; for half-life: 0.01 n naoh, pH 12, 0.01 N NaOH, read-out: Half-life t1/2
Protocol: (§1) Analytical Methods. A high pressure liquid chromatography (HPLC) method was developed for the determination of the rate constants. The chromatographic analysis was performed in a system consisting of Waters Associates Model 600-A Solvent Delivery System, Model U-6K Injector and Model 440 Dual Channel Absorbance Detector operated at 254 and 280 nm. A 30 cm×3.9 mm (internal diameter) reverse phase μBondpack C18 column (Waters Associates), operated at ambient temperature, was used for all separations. When plasma samples were analyzed, the column was protected with a 2.3 cm×3.9 mm (internal diameter) Guard Column (Waters) packed with μBondpack C18/Corasil packing material. The mobile phase used for the separation of 17 and its degradation product, 5, consisted of water, 1-hexane sulfonic acid in acetic acid (B-6 reagent, Waters), 0.1M triethanolamine and methanol (100:1:100:799). […] For the separation of compounds 10-16 and 18 and their degradation product 5, a mobile phase consisting of water, 1-hexane sulfonic acid in acetic acid (B-6 reagent, Waters), 0.1M triethanolamine and methanol (390:1:10:599) was used.
(§2) Determination of the Hydrolytic Rate Constants in Aqueous Solutions. A 0.01M phosphate buffer and 0.01N sodium hydroxide solution were prepared from freshly distilled deionized water. This ionic strength was maintained at 0.1M with sodium chloride. The pH of the phosphate buffer was determined at 37.0° C. with a pH meter standardized at this temperature. For determination of the hydrolytic rate constants, a fresh concentrated solution of the ester in methanol was added to the hydrolytic medium previously equilibrated to the desired temperature and mixed thoroughly to result in an initial concentration of about 5×10^-4 mol. liter^-1. All reactions were run under pseudo first order conditions. Samples of 25 μL were injected into the column at various time intervals and the pseudo first order rate constants were determined from disappearance of the compound by linear regression of natural logarithm of the peak height versus time plots. The half-life and standard error of the rate constant were calculated for each run.

[4] = system: heart rate response to isoproterenol (β-adrenergic); assay: Heart rate response to isoproterenol in rats (initial drug screening); assay type: in vivo, male Spraque-Dawley rats; conditions: 6 mg/kg i.p.; mean ± SEM
From the text: (§3) Initial Drug Screening Protocol. Thirty-two male Spraque-Dawley rats (Blue Spruce Farms) initially weighing 300-450 gm were divided into seven different groups, each for a different drug to be tested: 12(n=4), 14(n=4), 17(n=5), 13(n=4) and 18(n=3), corresponding to the designated compounds 12, 14, 17, 13 and 18 (number of animals), respectively. The other two groups were controls (n=8, isoproterenol alone pretreated with carrier) and those treated with a known β-blocker, dl-propranolol (n=3). Ech animal was anesthetized with sodium pentobarbital (45 mg/kg) and the carotid artery was cannulated with PE-50 tubing. The cannula was subcutaneously threaded around the neck and exteriorized dorsally between the shoulder blades. Th cannula was filled with a heparin solution (300 μg/mL) and sealed with a solid 22 gauge stylet. The animals were housed in individual stainless steel cages, and two days were allowed for recovery from the surgery. Food and water were provided ad libitum. On the day of the experiment, the blood pressure and heart rate of each rat were monitored with a pressure transducer (Narco-Bio model P-1000) and the data recorded on a four-channel physiograph (Narco-Bio systems Marck IV). One hour was allowed as an equilibration period before any drugs were administered. All beta blockers were administered intraperitoneally at a dose of 6 mg/kg. Compounds 12 and 14 and dl-proranolol were dissolved in normal saline while compounds 13, 17 and 18 were dissolved in an ethanol: water solution (3:1). Depending on the trial, controls were administered the appropriate carrier. One hour after administration of the blocker, isoproterenol (Isuprel®, Wintrop Laboratories) was administered subcutaneously at a dose of 25 μg/kg. Blood pressures and heart rate also were recorded 3, 5, 10, 15, 20, 30, 45 and 60 minutes after isoproterenol administration. Both control and experimental animals were unrestrained and free moving in their home cage throughout the experiment. […] However, significant differences in the mean heart rate response amoung the 7 groups were observed: *p<0.005;**p<0.025. Comparisons between groups were made by the Newman-Keuls procedure with significance set at the 95% confidence interval. […] All data are shown as mean±standard error of the mean.

[5] = Enzymatic hydrolytic cleavage in human plasma; assay type: in vitro ADME; conditions: 37.0 ± 0.1° C.; for Observed first order hydrolytic rate constant k: ± SEM; for half-life at 1000 µM: human, plasma, read-out: Half-life t1/2
Protocol: as §1, §2
Determination of the Enzymatic Hydrolytic Cleavage Rates in Human Plasma. The freshly collected plasma used was obtained from the Civitan Regional Blood Center, Inc. (Gainesville, Fla.) and contained about 80% plasma diluted with anticoagulant citrate phosphate dextrose solution, U.S.P. The plasma was stored in a refrigerator and used within one week from the date it was collected.
A portion of 50 μL of a freshly prepared solution of the compound in methanol was added to 10 mL plasma, previously equilibrated at 37.0° C. in a water bath, and mixed thoroughly to result in an initial concentration of 1×10^-3 mol. liter^-1. One mL samples of plasma were withdrawn from the test medium, mixed immediately with 4.0 mL ice cold 95% v/v ethanol, centrifuged and the supernatant analyzed by HPLC. The first order hydrolytic rate constant was determined as before in the aqueous solutions and the results are listed in TABLE II below.

[6] = Hydrolysis in 0.01M phosphate buffer pH 7.4; assay type: physicochemical; conditions: pH 7.4, 37° C.
Protocol: Analytical Methods. A high pressure liquid chromatography (HPLC) method was developed for the determination of the rate constants. The chromatographic analysis was performed in a system consisting of Waters Associates Model 600-A Solvent Delivery System, Model U-6K Injector and Model 440 Dual Channel Absorbance Detector operated at 254 and 280 nm. A 30 cm×3.9 mm (internal diameter) reverse phase μBondpack C18 column (Waters Associates), operated at ambient temperature, was used for all separations. When plasma samples were analyzed, the column was protected with a 2.3 cm×3.9 mm (internal diameter) Guard Column (Waters) packed with μBondpack C18/Corasil packing material. The mobile phase used for the separation of 17 and its degradation product, 5, consisted of water, 1-hexane sulfonic acid in acetic acid (B-6 reagent, Waters), 0.1M triethanolamine and methanol (100:1:100:799). […]
Determination of the Hydrolytic Rate Constants in Aqueous Solutions. […] The pH of the phosphate buffer was determined at 37.0° C. with a pH meter standardized at this temperature. […] Samples of 25 μL were injected into the column at various time intervals and the pseudo first order rate constants were determined from disappearance of the compound by linear regression of natural logarithm of the peak height versus time plots. The half-life and standard error of the rate constant were calculated for each run.

[7] = system: blood pressure response to isoproterenol; assay: Blood pressure response to isoproterenol in rats; assay type: in vivo, male Spraque-Dawley rats; conditions: 6 mg/kg i.p., isoproterenol 25 μg/kg s.c.; FIG. 3
From the text: as §3
Symbols are the same as those described for FIG. 1. […] Data are shown as mean±standard error of the mean.

Compound	activity as metabolite of metoprolol (β-adrenergic [1])	activity of acid (β-adrenergic [2])	Observed pseudo first order hydrolytic rate constant k [3]	half-life [3]	resting heart rate prior to administration of isoproterenol [4]	Observed first order hydrolytic rate constant k [5]	half-life at 1000 µM [5]	half-life [6]	mean change in blood pressure vs propranolol and compound 12-treated groups [7]
CC(C)NCC(O)COc1ccc(CC(=O)O)cc1 (centres unmarked) [drawing 10]	inactive metabolite								
CC(C)NCC(O)COc1ccc(CC(=O)O)cc1 (centres unmarked) [Compound 5, 4-(2-Hydroxy-3-isopropylamino)propoxyphenylacetic acid]		inactive							
CC(C)NCC(O)COc1ccc(CC(=O)OCc2ccccc2)cc1 (centres unmarked) [Compound 14, Benzyl 4-(2-hydroxy-3-isopropylamino)propoxyphenylacetate]			0.208 ± 0.004 min⁻¹	3.33 min	405±22 beat/minute	0.236 ± 0.007 min⁻¹	2.93 min	13 days	significantly lower (p<0.15)
CCCOC(=O)Cc1ccc(OCC(O)CNC(C)C)cc1 (centres unmarked) [Compound 11, n-Propyl 4-(2-hydroxy-3-isopropylamino)propoxyphenylacetate]			0.103 ± 0.001 min⁻¹	6.73 min		0.143 ± 0.005 min⁻¹	4.86 min	8.7 days	
